# Test results: publication PMC11434868, “Synthesis and Antiproliferative Effect of 3,4,5-Trimethoxylated Chalcones on Colorectal and Prostatic Cancer Cells” (Pharmaceuticals, 2024)
# Columns and labels:
# [1] = system: caspase-3 and PARP in DU145 cells; assay: Western blot of apoptosis-related proteins in DU145; type: cell-based, human; details: DU145, 48 h;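 also: compared with untreated control cells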
# Procedure: For total protein extraction, collected samples of each condition were washed in PBS. Then, the total cell pool was centrifuged at 200 g for 5 min at 4 °C and homogenized in RIPA lysis buffer (50 mM HEPES, pH 7.5, 150 mM NaCl, 1% sodium deoxycholate, 1% NP-40, 0.1% SDS, […] of aprotinin) containing protease inhibitors according to the manufacturer’s instructions. After quantification of protein levels using the Bradford method, proteins ([…]) were separated on 12.5% SDS-PAGE gels and transferred to PVDF membranes (GE Healthcare Life Science—Fisher Scientific). Membranes were probed with respective antibodies against human caspase-3, cleaved caspase-3, and PARP according to the manufacturer’s instructions. After incubation with appropriate secondary antibodies, blots were developed using the “ImmobilonWestern” substrate, following the manufacturer’s protocol, and G:BOX system (Syngene, Cambridge, UK). Membranes were then reblotted with human anti-β-actin used as a loading control.
# [2] = system: human PCa (DU145 and PC3) cell lines; assay: MTT assay, summary statements for PCa cells; type: cell-based; details: Homo sapiens, DU-145, DU145 and PC3, text summary; read-out: IC50 towards PCa cells
# Procedure: Human CRC (HCT116 and HT-29) and PCa (DU145 and PC3) cell lines were purchased from the American Type Culture Collection (ATCC—LGC Standards, Molsheim, France). All cells were grown in RPMI 1640 medium supplemented with 10% FBS, 1% L-glutamine, 100 U/mL penicillin, and 100 μg/mL streptomycin. Cultures were maintained in a humidified atmosphere containing 5% CO2 at 37 °C. Cells were seeded in 75 cm^2 culture flasks at 1.2 × 10^4 cells/cm^2 for HCT116, DU145, and PC3 cells, and 2.0 × 10^4 for HT-29 cells. Cells were grown for 24 h in culture medium prior to exposure or not to obtain the synthesized compounds. Stock solutions (10^−2 M in DMSO) of each compound were diluted in culture medium to obtain appropriate final concentrations.
# • (a) MTT assay: The antiproliferative effect of all compounds was determined using MTT assay (a metabolic activity test). Briefly, cells were seeded in 96-well culture plates at 4 × 10^3 cells/well for HCT116, PC3, and DU145 cells and 6 × 10^3 cells/well for HT-29 cells (100 µL/well), and grown for 24 h in culture medium prior to exposure or not to obtain compounds 1–15 with concentrations ranging from 5 nM to 50 μM. After 24 and 48 h of treatment, MTT (5 mg/mL in PBS) was added and incubated for another 3 h. MTT was then removed from the wells before adding 100 μL/well of DMSO. The optical density was detected with a microplate reader (Multiskan FC, Thermoscientific, Bordeaux, France) at 550 nm and cell viability was expressed as a percentage of each treatment condition compared to control cells. IC50 values were calculated for all compounds from the dose–response curve. Data are expressed as the arithmetic means ± standard error of the mean (SEM) of separate experiments. All experiments were performed at least in triplicate. • (b) Trypan blue dye exclusion method: Cells were grown for 24 h then treated with compounds 10 and 13 at indicated concentrations. After 48 h of treatment, cells were trypsinized and resuspended in complete medium. Each sample was mixed with Trypan blue solution (0.14% in HBSS, Invitrogen-GIBCO, ThermoFisher, Illkirch, France). Colored (non-viable) and dye-excluding (viable) cells were counted with the LUNA-II automated cell Counter (Logos Biosystems; MC2, Aubière, France). The control was normalized to 100% including viable and dead cells. The results indicated on the histograms were expressed as the percentage of cells compared to the control. IC50 values were determined from the percentages of viable cells compared to the control.
SMILES,PARP cleavage (89 kDa fragment) [1],cleaved caspase-3 [1],native PARP expression [1],pro-caspase-3 expression [1],IC50 [2]
"COc1cc(C(=O)/C=C/c2c[nH]c3ccccc23)cc(OC)c1OC [chalcone 10, (E)-3-(1H-indol-3-yl)-1-(3,4,5-trimethoxyphenyl)prop-2-en-1-one]",induced PARP cleavage,clearly observed,strong decreased expression,decrease was less marked,0.017 to 0.031 µM
"COc1cc(C(=O)/C=C/c2coc3ccc(C)cc3c2=O)cc(OC)c1OC [chalcone 13, (E)-6-methyl-3-(3-oxo-3-(3,4,5-trimethoxyphenyl)prop-1-en-1-yl)-4H-chromen-4-one]",clearly observed,clearly observed,strong decreased expression,decrease was less marked,–
